Source: ChEMBL document CHEMBL4364286, “Structure-Guided Design, Synthesis, and Biological Evaluation of (2-(1H-Indol-3-yl)-1H-imidazol-4-yl)(3,4,5-trimethoxyphenyl) Methanone (ABI-231) Analogues Targeting the Colchicine Binding Site in Tubulin” (J Med Chem, 2019)
Calls of active or inactive are those of the source. The rule behind the calls is not given here.

Assays:
[1] = system: A-375; assay: Antiproliferative activity against human A375 cells after 72 hrs by MTT assay; assay type: functional, cell-based; details: A-375, 72 h
[2] = system: M14; assay: Antiproliferative activity against human M14 cells after 72 hrs by MTT assay; assay type: functional, cell-based; details: M14, 72 h
[3] = system: WM164; assay: Antiproliferative activity against human WM164 cells after 72 hrs by MTT assay; assay type: functional, cell-based; details: WM164, 72 h
[4] = Antiproliferative activity against human DU145-TxR cells; assay type: functional, cell-based
[5] = Resistance index, ratio of IC50 for human DU145-TxR cells to IC50 for human DU145 cells; assay type: functional
[6] = biological target: T1, Tubulin (Bos taurus) (UniProt Q6B856+Q862L2+Q862F3); assay: Induction of bovine brain tubulin polymerization at 10 uM measured at time interval of 1 mins for 20 mins by spectrophotometric analysis
[7] = biological target: T2, Tubulin (Homo sapiens) (UniProt P68371+Q9H4B7+P0DPH7+P68366+Q13509+Q71U36+P04350+Q3ZCM7+P07437+P68363+Q9BQE3+Q6PEY2+Q13885+Q9BVA1+Q9BUF5); assay: Effect on microtubule network in human WM164 cells assessed as induction of polymerization at 100 nM after 18 hrs by DAPI staining based fluorescence confocal microscopic method; assay type: cell-based
[8] = biological target: T2, Tubulin (Homo sapiens); assay: Effect on microtubule network in human WM164 cells assessed as formation of dense and aggregated bundles of microtubules at 100 nM after 18 hrs by DAPI staining based fluorescence confocal microscopic method; assay type: cell-based
[9] = Half-life in CD-1 mouse liver microsomes in presence of NADPH regenerating system measured up to 4 hrs by UPLC-MS analysis; assay type: ADME, Microsome
[10] = Intrinsic clearance in CD-1 mouse liver microsomes in presence of NADPH regenerating system measured up to 4 hrs by UPLC-MS analysis; assay type: ADME, Microsome; details: read-out: CLH
[11] = Half-life in rat liver microsomes pre-incubated for 15 mins followed by addition of NADPH regenerating system by LC-MS analysis; assay type: ADME, Microsome
[12] = Intrinsic clearance in rat liver microsomes pre-incubated for 15 mins followed by addition of NADPH regenerating system by LC-MS analysis; assay type: ADME, Microsome; details: read-out: CLH
[13] = Half-life in human liver microsomes in presence of NADPH regenerating system; assay type: ADME, Microsome
[14] = Intrinsic clearance in human liver microsomes in presence of NADPH regenerating system; assay type: ADME, Microsome; details: read-out: CLH
[15] = system: A-375; assay: Antitumor activity against human A375 cells xenografted in nude mouse assessed as tumor growth inhibition at 15 mg/kg, ip administered once daily for 14 days and measured after 20 days by caliper method relative to control; assay type: functional; details: A-375, ip, read-out: TGI
[16] = system: PC-3; assay: Antitumor activity against human PC3 cells xenografted in nude mouse assessed as tumor growth inhibition at 15 mg/kg administered every other day for 3 weeks relative to control; assay type: functional; details: PC-3, 504 h, read-out: TGI
[17] = Antitumor activity against human PC3-TxR cells xenografted in nude mouse assessed as tumor growth inhibition at 15 mg/kg administered every other day for 3 weeks relative to control; assay type: functional; details: 504 h, read-out: TGI
[18] = Antitumor activity against human PC3-TxR cells xenografted in nude mouse assessed as reduction in tumor weight at 15 mg/kg administered every other day for 3 weeks relative to control; assay type: functional; set-up: scale not given: the % may be the effect or the level left
[19] = biological target: T1, Tubulin (Bos taurus); assay: Inhibition of bovine brain tubulin polymerization at 10 uM measured at time interval of 1 mins for 20 mins by spectrophotometric analysis
[20] = biological target: T2, Tubulin (Homo sapiens); assay: Disruption of microtubule network in human WM164 cells assessed as microtubule fragmentation at 100 nM after 18 hrs by DAPI staining based fluorescence confocal microscopic method; assay type: cell-based
[21] = biological target: T2, Tubulin (Homo sapiens); assay: Disruption of microtubule network in human WM164 cells assessed as microtubule disassembly at 100 nM after 18 hrs by DAPI staining based fluorescence confocal microscopic method; assay type: cell-based
[22] = system: A-375; assay: Inhibition of anchorage-dependent colony formation in human A375 cells assessed as decrease in colony number at 5 nM after 12 days by crystal violet-staining based assay relative to control; assay type: functional; details: A-375, 288 h
[23] = system: A-375; assay: Antimigratory activity in human A375 cells assessed as wound closure at 5 nM after 22 hrs by scratch migration assay (reference value: 60.7 +/- 3.5%); assay type: functional
[24] = system: A-375; assay: Antimigratory activity in human A375 cells assessed as wound closure at 25 nM after 22 hrs by scratch migration assay (reference value: 60.7 +/- 3.5%); assay type: functional
[25] = system: RPMI-7951; assay: Antimigratory activity in human RPMI7951 cells assessed as wound closure at 25 nM after 18 hrs by scratch migration assay (reference value: 71.8 +/- 1.8%); assay type: functional
[26] = system: PC-3; assay: Antiproliferative activity against human PC3 cells; assay type: functional, cell-based
[27] = Antiproliferative activity against human PC3-TxR cells; assay type: functional, cell-based
[28] = Resistance index, ratio of IC50 for human PC3-TxR cells to IC50 for human PC3 cells; assay type: functional
[29] = system: DU-145; assay: Antiproliferative activity against human DU145 cells; assay type: functional, cell-based

Structure (SMILES)	IC50 ([1]; read-out: IC50) [nM]	IC50 [2] [nM]	IC50 [3] [nM]	also measured
COc1cc(C(=O)c2c[nH]c(-c3c[nH]c4cc(OCc5ccccc5)ccc34)n2)cc(OC)c1OC	> 1000	> 1000	> 1000	–
COC(=O)c1ccc2c(-c3nc(C(=O)c4cc(OC)c(OC)c(OC)c4)c[nH]3)c[nH]c2c1	> 1000	> 1000	> 1000	–
CC(=O)O[C@@]12CO[C@@H]1C[C@H](O)[C@@]1(C)C(=O)[C@H](O)C3=C(C)[C@@H](OC(=O)[C@H](O)[C@@H](NC(=O)OC(C)(C)C)c4ccccc4)C[C@@](O)([C@@H](OC(=O)c4ccccc4)[C@H]21)C3(C)C [DOCETAXEL ANHYDROUS]	–	–	–	IC50 [4]: 352 nM; Ratio IC50 [5]: >3523; Activity [6]: Active; Activity [7]: Active; Activity [8]: Active
COc1cc(C(=O)c2c[nH]c(-c3ccc4cc[nH]c4c3)n2)cc(OC)c1OC	8	6.1	3.8	half-life [9]: 5.56 h; CLint scaled [10]: 10.3 mL/min/kg; half-life [11]: 15.2 h; CLint scaled [12]: 3.1 mL/min/kg; half-life [13]: 7.61 h; CLint scaled [14]: 2.73 mL/min/kg
COc1cc(C(=O)c2c[nH]c(-c3c(-c4ccccc4)[nH]c4ccccc34)n2)cc(OC)c1OC	> 1000	> 1000	> 1000	–
CC(=O)O[C@H]1C(=O)[C@@]2(C)[C@H]([C@H](OC(=O)c3ccccc3)[C@]3(O)C[C@H](OC(=O)[C@H](O)[C@@H](NC(=O)c4ccccc4)c4ccccc4)C(C)=C1C3(C)C)[C@]1(OC(C)=O)CO[C@@H]1C[C@@H]2O [PACLITAXEL]	–	–	–	inhibition in vivo at 15 mg/kg [15]: 68.6%; IC50 [4]: > 1000 nM; inhibition in vivo at 15 mg/kg [16]: 101%; inhibition in vivo at 15 mg/kg [17]: 37.8%; Activity [18]: 34.5%
COc1cc(C(=O)c2c[nH]c(-c3cccc4cc[nH]c34)n2)cc(OC)c1OC	286	241	436	–
COc1cc(C(=O)c2c[nH]c(-c3c[nH]c4c(OCc5ccccc5)cccc34)n2)cc(OC)c1OC	> 1000	> 1000	> 1000	–
COc1cc(C(=O)c2c[nH]c(-c3c[nH]c4cccc(OC)c34)n2)cc(OC)c1OC	> 1000	> 1000	> 1000	–
COc1cc(C(=O)c2c[nH]c(-c3ccc4[nH]ccc4c3)n2)cc(OC)c1OC	8.6	18.5	6.1	–
COc1cc(C(=O)c2c[nH]c(-c3c[nH]c4ccc(OCc5ccccc5)cc34)n2)cc(OC)c1OC	> 1000	> 1000	> 1000	–
COc1cc(C(=O)c2c[nH]c(-c3c[nH]c4cccc(F)c34)n2)cc(OC)c1OC	7.2	8.2	–	–
COc1cc(C(=O)c2c[nH]c(-c3c[nH]c4c(OC)cccc34)n2)cc(OC)c1OC	38.3	34.1	115	–
COc1cc(C(=O)c2c[nH]c(-c3c[nH]c4cccc(OCc5ccccc5)c34)n2)cc(OC)c1OC	> 1000	> 1000	> 1000	–
COc1cc2c(c(OC)c1OC)-c1ccc(OC)c(=O)cc1[C@@H](NC(C)=O)CC2 [COLCHICINE]	–	16.6	10.8	IC50 [1]: 14.1 nM; inhibition at 0.005 µM [22]: 24.7%; Activity [23]: 46%; Activity [24]: 20.7%; Activity [25]: 42.8%; IC50 [26]: 10.4 nM; IC50 [27]: 37.4 nM; Ratio IC50 [28]: 3.6; IC50 [29]: 35.5 nM; IC50 [4]: > 1000 nM; Ratio IC50 [5]: >28

The next lines start with results.

IC50 ([1]; read-out: IC50) [nM]	Structure (SMILES)	IC50 [2] [nM]	IC50 [3] [nM]	also measured
19.2	COc1cc(C(=O)c2c[nH]c(-c3c[nH]c4ccc(F)cc34)n2)cc(OC)c1OC	18	80.9	–
> 1000	COc1cc(C(=O)c2c[nH]c(-c3c[nH]c4cc(O)ccc34)n2)cc(OC)c1OC	> 1000	> 1000	–
793	COc1ccc2c(-c3nc(C(=O)c4cc(OC)c(OC)c(OC)c4)c[nH]3)c[nH]c2c1	> 1000	> 1000	–
21.1	COc1cc(C(=O)c2c[nH]c(-c3c[nH]c4cc(C)ccc34)n2)cc(OC)c1OC	21.7	23.7	–
13.8	COc1cc(C(=O)c2c[nH]c(-c3c[nH]c4cccc(Br)c34)n2)cc(OC)c1OC	10.4	67.1	–
164	COc1cc(C(=O)c2c[nH]c(-c3c[nH]c4ccc(Br)cc34)n2)cc(OC)c1OC	104	442	–
> 1000	COc1cc(C(=O)c2c[nH]c(-c3c[nH]c4ccc(O)cc34)n2)cc(OC)c1OC	> 1000	> 1000	–
67.8	COc1cc(C(=O)c2c[nH]c(-c3c[nH]c4cc(Br)ccc34)n2)cc(OC)c1OC	41.2	55.4	–
278	COc1cc(C(=O)c2c[nH]c(-c3c[nH]c4ccc(C)cc34)n2)cc(OC)c1OC	177	552	–
61.8	COc1cc(C(=O)c2c[nH]c(-c3c[nH]c4ccc(Cl)cc34)n2)cc(OC)c1OC	64.9	160	–
1.8	COc1cc(C(=O)c2c[nH]c(-c3c[nH]c4cccc(C)c34)n2)cc(OC)c1OC	1.7	3.2	inhibition [19]: Active; Activity [20]: Active; Activity [21]: Active; inhibition at 0.005 µM [22]: 59%; Activity [23]: 48.5%; Activity [24]: 25.9%; Activity [25]: 35.6%; half-life [9]: 2.42 h; CLint scaled [10]: 23.6 mL/min/kg; half-life [11]: 1.8 h; CLint scaled [12]: 26 mL/min/kg; half-life [13]: 6.7 h; CLint scaled [14]: 3.1 mL/min/kg; IC50 [26]: 5.2 nM; IC50 [27]: 3.9 nM; Ratio IC50 [28]: 0.8; IC50 [29]: 13.8 nM; IC50 [4]: 25.2 nM; Ratio IC50 [5]: 1.8
17.5	COc1cc(C(=O)c2c[nH]c(-c3c[nH]c4cc(F)ccc34)n2)cc(OC)c1OC	5.8	10.3	–
13.1	COc1cc(C(=O)c2c[nH]c(-c3c[nH]c4c(C)cccc34)n2)cc(OC)c1OC	10.8	61.3	–
